According to ChEMBL document CHEMBL3616404, “Expanding the chemical space of human serine racemase inhibitors” (Bioorg Med Chem Lett, 2015):

How the values were obtained:
[1] = target: T1, Serine racemase (Homo sapiens) (UniProt Q9GZT4); test: Inhibition of hexa-His-tagged purified human recombinant serine racemase expressed in Escherichia coli BL21 Codonplus (DE3)-RIL cells assessed as reduction in beta-elimination of L-serine at 2.8 mM by spectrophotomtery
T1 sequence (whole entry): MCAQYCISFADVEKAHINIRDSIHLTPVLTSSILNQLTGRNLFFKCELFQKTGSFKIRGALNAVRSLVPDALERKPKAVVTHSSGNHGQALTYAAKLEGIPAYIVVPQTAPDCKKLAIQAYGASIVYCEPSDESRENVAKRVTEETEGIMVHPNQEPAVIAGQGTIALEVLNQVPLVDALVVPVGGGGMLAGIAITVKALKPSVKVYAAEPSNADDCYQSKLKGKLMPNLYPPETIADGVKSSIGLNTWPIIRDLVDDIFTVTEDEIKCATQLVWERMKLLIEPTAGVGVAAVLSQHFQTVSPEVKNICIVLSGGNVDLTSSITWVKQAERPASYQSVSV

Serine racemase [2] = target: T2, Serine racemase (Homo sapiens, UniProt Q9GZT4); test: Inhibition of hexa-His-tagged purified human recombinant serine racemase expressed in Escherichia coli BL21 Codonplus (DE3)-RIL cells assessed as reduction in beta-elimination of L-serine at by spectrophotomtery
T2 sequence (Q9GZT4 whole entry): T1 sequence (whole entry)

[3] = target: T1, Serine racemase (Homo sapiens); test: Inhibition of hexa-His-tagged purified human recombinant serine racemase expressed in Escherichia coli BL21 Codonplus (DE3)-RIL cells assessed as reduction in beta-elimination of L-serine at 5 mM by spectrophotomtery
Serine racemase [4] = target: T2, Serine racemase; test: Inhibition of human recombinant serine racemase expressed in Escherichia coli Rosetta 2 (DE3) cells using L-serine as substrate by horseradish peroxidase based couple assay
[5] = target: T1, Serine racemase (Homo sapiens); conditions: 330 uM
Description: Inhibition of hexa-His-tagged purified human recombinant serine racemase expressed in Escherichia coli BL21 Codonplus (DE3)-RIL cells assessed as reduction in beta-elimination of L-serine at 330 uM by spectrophotomtery

Compound	inhibition [1]	Ki (Serine racemase [2])	inhibition [3]	Ki (Serine racemase [4])	inhibition [5]
O=C(O)CC(CC(=O)O)C(=O)O [TRICARBALLYLIC ACID]	59%	1300 µM	–	–	–
O=C(O)NCS(=O)(=O)c1cccs1	–	1500 µM	70%	–	–
CN1C(=O)C(=CNC(CC(=O)O)C(=O)O)C(=O)N(C)C1=O (stereo unspecified)	–	1700 µM	66%	–	–
O=C(O)COCC(=O)Cc1cc(SCCO)cc([N+](=O)[O-])c1	29%	4500 µM	–	–	–
O=[N+]([O-])c1cccnc1SCC(O)CO (stereo unspecified)	0%	–	–	–	–
O=C(O)CC1(C(=O)O)CN2CCC1CC2 (stereo unspecified)	–	> 10000 µM	2%	–	–
CC[C@H](NS(=O)(=O)c1ccc([N+](=O)[O-])cc1)C(=O)O	–	1500 µM	70%	–	–
O=C(O)CC(=O)O [MALONIC ACID]	–	66 µM	–	59 µM	76%
